Laboratory results published in publication PMC5484114 (Marine Drugs, 2017).
pIC50: −log10 of the molar value. Where a SMILES comes first, the peptide text is derived from it. Bridges are numbered along the chain shown (N, C = ends). Roman numbers before positions name the chains, in order.

What was measured:
hα9α10 nAChR = hα9α10 nAChR (Homo sapiens, UniProt Q9GZZ6+Q9UGM1); test: cell-based; type: cell-based
hα3β2 nAChR = type: cell-based, human
hα4β2 nAChR = type: cell-based, human
hα3β4 nAChR = type: cell-based, human
hα4β4 nAChR = type: cell-based, human
hα7 nAChR = type: cell-based, human
nAChR subtypes = type: cell-based, human; rodent

hα9α10 nAChR, sequence (Q9UGM1 26-479 limits assumed): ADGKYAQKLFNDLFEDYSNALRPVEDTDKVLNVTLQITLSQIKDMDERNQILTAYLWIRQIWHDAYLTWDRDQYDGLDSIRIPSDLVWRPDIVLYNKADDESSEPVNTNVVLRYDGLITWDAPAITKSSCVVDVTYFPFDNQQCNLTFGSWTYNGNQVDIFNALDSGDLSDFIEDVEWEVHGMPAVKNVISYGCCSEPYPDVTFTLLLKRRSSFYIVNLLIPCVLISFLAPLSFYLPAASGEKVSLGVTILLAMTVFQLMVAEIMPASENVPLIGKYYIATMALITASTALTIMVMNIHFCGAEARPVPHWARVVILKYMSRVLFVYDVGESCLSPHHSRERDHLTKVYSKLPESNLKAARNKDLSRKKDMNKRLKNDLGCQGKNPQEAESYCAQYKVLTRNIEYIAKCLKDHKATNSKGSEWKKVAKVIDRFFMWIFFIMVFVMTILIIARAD
hα9α10 nAChR, sequence (Q9GZZ6 25-450 limits assumed): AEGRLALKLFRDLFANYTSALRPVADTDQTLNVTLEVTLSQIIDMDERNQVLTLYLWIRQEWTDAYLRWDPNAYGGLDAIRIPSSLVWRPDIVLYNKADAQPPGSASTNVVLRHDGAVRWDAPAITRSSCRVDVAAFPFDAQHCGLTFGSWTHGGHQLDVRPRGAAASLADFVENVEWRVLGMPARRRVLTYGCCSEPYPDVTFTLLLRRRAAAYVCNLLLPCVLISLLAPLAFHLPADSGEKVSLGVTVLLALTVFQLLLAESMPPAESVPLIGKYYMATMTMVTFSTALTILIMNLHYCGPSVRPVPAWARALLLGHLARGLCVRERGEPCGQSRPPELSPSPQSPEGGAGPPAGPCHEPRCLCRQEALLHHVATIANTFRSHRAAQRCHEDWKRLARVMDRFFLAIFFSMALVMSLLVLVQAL

| SMILES | Hill Slope (nH) at hα9α10 (hα9α10 nAChR) | reduction of ACh-evoked current amplitude at hα3β2 (hα3β2 nAChR) | reduction of ACh-evoked current amplitude at hα4β2 (hα4β2 nAChR) | effect on ACh-evoked currents of hα3β4 (hα3β4 nAChR) | effect on ACh-evoked currents of hα4β4 (hα4β4 nAChR) | effect on ACh-evoked currents of hα7 (hα7 nAChR) | nAChR subtype preference (nAChR subtypes) | pIC50 (hα9α10 nAChR) |
| --- | --- | --- | --- | --- | --- | --- | --- | --- |
| CC(C)C[C@H](NC(=O)[C@H](CO)NC(=O)[C@@H]1CSSC[C@H](NC(=O)[C@@H]2CCCN2C(=O)[C@H](CCCNC(=N)N)NC(=O)[C@H](Cc2c[nH]cn2)NC(=O)[C@@H](NC(=O)[C@@H](N)CC(=O)O)C(C)C)C(=O)N[C@@H](CCC(N)=O)C(=O)N[C@@H](CO)C(=O)N[C@@H](C(C)C)C(=O)N[C@@H](CCCNC(=N)N)C(=O)N2CCC[C@H]2C(=O)NCC(=O)N[C@@H](CCCNC(=N)N)C(=O)N[C@@H](C(C)C)C(=O)N[C@@H](Cc2c[nH]c3ccccc23)C(=O)NCC(=O)N[C@@H](CCCCN)C(=O)N[C@H](C(=O)N[C@@H](CO)C(=O)N[C@@H](CC(C)C)C(=O)O)CSSC[C@H](NC(=O)[C@@H]2CCCN2C(=O)[C@H](CCCNC(=N)N)NC(=O)[C@H](Cc2c[nH]cn2)NC(=O)[C@@H](NC(=O)[C@@H](N)CC(=O)O)C(C)C)C(=O)N[C@@H](CCC(N)=O)C(=O)N[C@@H](CO)C(=O)N[C@@H](C(C)C)C(=O)N[C@@H](CCCNC(=N)N)C(=O)N2CCC[C@H]2C(=O)NCC(=O)N[C@@H](CCCNC(=N)N)C(=O)N[C@@H](C(C)C)C(=O)N[C@@H](Cc2c[nH]c3ccccc23)C(=O)NCC(=O)N[C@@H](CCCCN)C(=O)N1)C(=O)O [NTD] (I: H-DVHRPCQSVRPGRVWGKCSL-OH / II: H-DVHRPCQSVRPGRVWGKCSL-OH; disulfide I:6-II:18, I:18-II:6) | −0.9 | approximately 50% | approximately 50% | not markedly affected | not markedly affected | not markedly affected | prefers β2-containing rather than β4-containing nAChR subtypes | – |
| CC(C)[C@@H]1NC(=O)[C@H](CCCNC(=N)N)NC(=O)CNC(=O)[C@@H]2CCCN2C(=O)[C@H](CCCNC(=N)N)NC(=O)[C@H](C(C)C)NC(=O)[C@H](CO)NC(=O)[C@H](CCC(N)=O)NC(=O)[C@@H](N)CSSC[C@@H](C(=O)O)NC(=O)[C@H](CCCCN)NC(=O)CNC(=O)[C@H](Cc2c[nH]c3ccccc23)NC(=O)[C@H](C(C)C)NC(=O)[C@H](CCCNC(=N)N)NC(=O)CNC(=O)[C@@H]2CCCN2C(=O)[C@H](CCCNC(=N)N)NC(=O)[C@H](C(C)C)NC(=O)[C@H](CO)NC(=O)[C@H](CCC(N)=O)NC(=O)[C@@H]2CCCN2C(=O)CNC(=O)[C@@H]2CCCN2C(=O)[C@H](CCCCN)NC(=O)CNC(=O)[C@H](Cc2c[nH]c3ccccc23)NC1=O [cNTD] (H-CQSVRPGRVWGKPGPQSVRPGRVWGKC-OH; disulfide 1-27) | – | – | – | – | – | – | – | 5.58 |
